The source made the active and inactive calls. The calls are words filed in the database; no cut-off is given here.
Experiments:
UMSCC1 [1] = assay: Induction of cell cycle arrest in human UM-SCC-1 cells assessed as accumulation at G1/S phase after 6 hrs by flow cytometry; type: functional, cell-based
UMSCC1 [2] = assay: Induction of cell cycle arrest in human UM-SCC-1 cells assessed as accumulation at G1/S phase in presence of OGF after 6 hrs by flow cytometry; type: functional, cell-based
UMSCC1 [3] = assay: Induction of cell cycle arrest in human UM-SCC-1 cells assessed as reduction in accumulation at G2/M phase in presence of OGF after 6 hrs by flow cytometry; type: functional, cell-based
MIA PaCa-2 [4] = assay: Antitumor activity against human MIAPaCa2 cells xenografted in athymic BALB/c nu/nu nude mouse assessed as tumor incidence at 120 mg/kg dosed every 3 days and co-treated with 10 mg/kg OGF and measured on day 16 after tumor cell inoculation; type: functional
UMSCC1 [5] = assay: Antitumor activity against human UM-SCC-1 cells xenografted in nu/nu mouse assessed as latency time for measurable (62.5 mm3) tumors at 120 mg/kg dosed every 3 days (Rvb <=14 days); type: functional
UMSCC1 [6] = assay: Antitumor activity against human UM-SCC-1 cells xenografted in nu/nu mouse assessed as latency time for measurable (62.5 mm3) tumors at 120 mg/kg dosed every 3 days and co-treated with 10 mg/kg OGF (Rvb <=14 days); type: functional
UMSCC1 [7] = assay: Antitumor activity against human UM-SCC-1 cells xenografted in nu/nu mouse assessed as reduction in tumor measured on 4 to 36 day of measurable tumors at 120 mg/kg dosed every 3 days relative to control; type: functional, organism-based
UMSCC1 [8] = assay: Antitumor activity against human UM-SCC-1 cells xenografted in nu/nu mouse assessed as reduction in tumor measured on 4 to 36 day of measurable tumors at 120 mg/kg dosed every 3 days and co-treated with 10 mg/kg OGF relative to control; type: functional, organism-based
MIA PaCa-2 [9] = assay: Growth inhibition of human MIAPaCa2 cells assessed as decrease in cell number at 0.01 uM incubated for 72 hrs in presence of 1 uM OGF by trypan blue staining assay relative to control; type: functional
MIA PaCa-2 [10] = assay: Growth inhibition of human MIAPaCa2 cells assessed as decrease in cell number at 0.01 uM incubated for 48 hrs in presence of 1 uM OGF by MTS assay relative to control; type: functional
MIA PaCa-2 [11] = assay: Growth inhibition of human MIAPaCa2 cells assessed as decrease in cell number at 0.01 uM incubated for 72 hrs in presence of 1 uM OGF by MTS assay relative to control; type: functional
MIA PaCa-2 [12] = assay: Growth inhibition of human MIAPaCa2 cells assessed as decrease in cell number at 0.01 uM incubated for 96 hrs in presence of 1 uM opioid antagonist naloxone by MTS assay relative to control; type: functional, cell-based
PANC-1 = assay: Growth inhibition of human PANC1 cells assessed as decrease in cell number at 0.01 uM incubated for 72 hrs by MTS assay relative to control; type: functional; conditions: PANC-1, 72 h, read-out: GI
Mus musculus [13] = assay: Effect on plasma OGF level in athymic BALB/c nu/nu nude mouse xenografted with MIAPaCa2 cells at 120 mg/kg dosed every 3 days by radioimmunoassay; type: functional, organism-based
Mus musculus [14] = assay: Effect on plasma OGF level in athymic BALB/c nu/nu nude mouse xenografted with MIAPaCa2 cells at 120 mg/kg dosed every 3 days and co-treated with 10 mg/kg OGF by radioimmunoassay; type: functional, organism-based
MIA PaCa-2 [15] = assay: Antitumor activity against human MIAPaCa2 cells xenografted in athymic BALB/c nu/nu nude mouse assessed as reduction in tumor weight at 120 mg/kg dosed every 3 days and co-treated with 10 mg/kg OGF measured on day 45 after tumor cell inoculation; type: functional; design: scale not given: the % may be the effect or the level left
MIA PaCa-2 [16] = assay: Antitumor activity against human MIAPaCa2 cells xenografted in athymic BALB/c nu/nu nude mouse assessed as reduction in tumor volume at 120 mg/kg dosed every 3 days and co-treated with 10 mg/kg OGF measured on day 45 after tumor cell inoculation; type: functional; design: scale not given: the % may be the effect or the level left
MIA PaCa-2 [17] = assay: Antitumor activity against human MIAPaCa2 cells xenografted in athymic BALB/c nu/nu nude mouse assessed as effect on tumor incidence at 10 mg/kg dosed daily measured on day 16 after tumor cell inoculation relative to control; type: functional, organism-based
MIA PaCa-2 [18] = assay: Antitumor activity against human MIAPaCa2 cells xenografted in athymic BALB/c nu/nu nude mouse assessed as effect on tumor incidence at 120 mg/kg dosed every 3 days measured on day 16 after tumor cell inoculation relative to control; type: functional, organism-based
MIA PaCa-2 [19] = assay: Antitumor activity against human MIAPaCa2 cells xenografted in athymic BALB/c nu/nu nude mouse assessed as effect on tumor incidence at 120 mg/kg dosed every 3 days and co-treated with 10 mg/kg OGF measured on day 16 after tumor cell inoculation relative to control; type: functional, organism-based
MIA PaCa-2 [20] = assay: Antitumor activity against human MIAPaCa2 cells xenografted in athymic BALB/c nu/nu nude mouse assessed as latency time for visible tumor at 10 mg/kg dosed daily measured on day 10 after tumor cell inoculation (reference value: 10.1 +/- 1.8 days); type: functional
MIA PaCa-2 [21] = assay: Antitumor activity against human MIAPaCa2 cells xenografted in athymic BALB/c nu/nu nude mouse assessed as latency time for visible tumor at 120 mg/kg dosed every 3 days and co-treated with 10 mg/kg OGF measured on day 10 after tumor cell inoculation (reference value: 10.1 +/- 1.8 days); type: functional
MIA PaCa-2 [22] = assay: Antitumor activity against human MIAPaCa2 cells xenografted in athymic BALB/c nu/nu nude mouse assessed as latency time for measurable tumor at 10 mg/kg dosed daily measured on day 10 after tumor cell inoculation (reference value: 13.2 +/- 1.8 days); type: functional
MIA PaCa-2 [23] = assay: Antitumor activity against human MIAPaCa2 cells xenografted in athymic BALB/c nu/nu nude mouse assessed as latency time for measurable tumor at 120 mg/kg dosed every 3 days and co-treated with 10 mg/kg OGF measured on day 10 after tumor cell inoculation (reference value: 13.2 +/- 1.8 days); type: functional
MIA PaCa-2 [24] = assay: Antitumor activity against human MIAPaCa2 cells xenografted in athymic BALB/c nu/nu nude mouse assessed tumor weight at 10 mg/kg dosed daily measured on day 45 after tumor cell inoculation (reference value: 5.5 +/- 1 g); type: functional
MIA PaCa-2 [25] = assay: Antitumor activity against human MIAPaCa2 cells xenografted in athymic BALB/c nu/nu nude mouse assessed tumor volume at 10 mg/kg dosed daily measured on day 45 after tumor cell inoculation (reference value: 8935 +/- 1694 mm3); type: functional
MIA PaCa-2 [26] = assay: Antitumor activity against human MIAPaCa2 cells xenografted in athymic BALB/c nu/nu nude mouse assessed spleen weight at 10 mg/kg dosed daily measured on day 45 after tumor cell inoculation (reference value: 761 +/- 61 mg); type: functional
MIA PaCa-2 [27] = assay: Antitumor activity against human MIAPaCa2 cells xenografted in athymic BALB/c nu/nu nude mouse assessed spleen weight at 120 mg/kg dosed every 3 days and co-treated with 10 mg/kg OGF measured on day 45 after tumor cell inoculation (reference value: 761 +/- 61 mg); type: functional

Nc1ccn([C@@H]2O[C@H](CO)[C@@H](O)C2(F)F)c(=O)n1 [GEMCITABINE]
Activity (UMSCC1 [1]): Active | Activity (UMSCC1 [2]): Active | Activity (UMSCC1 [3]): Active | Activity (MIA PaCa-2 [4]): 0% | Time (UMSCC1 [5]): <=2 weeks | Time (UMSCC1 [6]): 20 days | Activity (UMSCC1 [7]): Active | Activity (UMSCC1 [8]): Active | growth inhibition (GI) (MIA PaCa-2 [9]): 49.2% | growth inhibition (GI) (MIA PaCa-2 [10]): 26% | growth inhibition (GI) (MIA PaCa-2 [11]): 49% | growth inhibition (GI) (MIA PaCa-2 [12]): Active | inhibition of growth at 0.01 µM (PANC-1): 54% | Activity (Mus musculus [13]): inactive | Activity (Mus musculus [14]): inactive | Activity (MIA PaCa-2 [15]): 85% | Activity (MIA PaCa-2 [16]): 83% | Activity (MIA PaCa-2 [17]): inactive | Activity (MIA PaCa-2 [18]): inactive | Activity (MIA PaCa-2 [19]): inactive | Time (MIA PaCa-2 [20]): 10.7 days | Time (MIA PaCa-2 [21]): 16.2 days | Time (MIA PaCa-2 [22]): 14.2 days | Time (MIA PaCa-2 [23]): 19.5 days | Activity (MIA PaCa-2 [24]): 3.5 g | Activity (MIA PaCa-2 [25]): 4849 mm3 | Activity (MIA PaCa-2 [26]): 606 mg | Activity (MIA PaCa-2 [27]): 437 mg
